In this experiment the test system is patients diagnosed with AQP4-IgG positive NMOSD. Description: Clinical research of the compound of formula (I) in treating neuromyelitis optica spectrum disorder (NMOSD). The format is in vivo, human. The procedure: Average annualized relapse rate (ARR)=total number of episodes of subjects/(number of subjects*observation time).
Example 1: Clinical Research of the Compound of Formula (I) in Treating Neuromyelitis Optica Spectrum Disorder (NMOSD)
Tablets of the compound of formula (I), specification: 100 mg/tablet.
1) Male or female from 18 to 75 years old (including 18 and 75 years old);
2) Patients diagnosed with AQP4-IgG positive NMOSD according to the 2015 IPND diagnostic criteria;
3) Requirements for history of relapse: 2 or more relapses of NMOSD requiring rescue therapy within 1 year before baseline, the rescue therapy can include IV glucocorticoid, plasma exchange, and/or intravenous immune globulin (IVIG);
4) Subjects must have been on stable treatment (if any) for more than 1 month before starting test drug treatment, defined as follows: • the amount of immunosuppressant (such as tacrolimus, azathioprine, mycophenolate) and/or oral corticosteroid must be stable or in the process of reduction, and the acute phase rescue therapy (such as IV glucocorticoid, plasma exchange, and/or intravenous immunoglobulin) must be completed for more than 1 month.
The test drug was administered to the qualified subjects in the morning on an empty stomach, once a day, one tablet at a time, and 100 mg per tablet.
At present, the study has completed the enrollment of all 10 subjects, and the average annualized relapse rate (ARR=the total number of episodes of subjects/(number of subjects*observation time)) of all subjects before enrollment was 2.1. By now, an annualized relapse rate of 0.7 for existing subjects after baseline medication has been observed. A patient with a 7-year history of NMOSD had severe symptoms (unable to stand) before participating in the trial. […] At the 7th week of medication, the patient could walk more than 20 meters with assistance, and could substantially take care of themself.

In the case of `CC#CC(=O)N1CC[C@@H](n2cc(-c3ccc(Oc4c(F)cccc4F)cc3)c3c(N)n[nH]c(=O)c32)C1` [compound of formula (I), (R)-4-amino-1-(1-(but-2-ynoyl)pyrrolidin-3-yl)-3-(4-(2,6-difluorophenoxy)phenyl)-1,6-dihydro-7H-pyrrolo[2,3-d]pyridazin-7-one], the “annualized relapse rate (ARR) after baseline medication” value (AQP4-IgG positive NMOSD subjects (10 enrolled), 100 mg tablet once a day, morning, empty stomach, average ARR before enrollment was 2.1, interim (by now)) stood at 0.7. For the same compound, the mobility of patient result (patient, 7-year history of NMOSD, unable to stand before trial, after 4 weeks of administration, could stand up and walk several steps with assistance) was “significantly improved mobility”. In addition, the “walking distance with assistance” value (same patient, at the 7th week of medication, could substantially take care of themself) is reported as “more than 20 meters”.

The values above are taken from patent US20230270743A1, “USE OF BTK INHIBITORS IN THE TREATMENT OF DISEASES” (JIANGSU HENGRUI PHARMACEUTICALS CO., LTD., priority 2020, published 2023).
